US20230406849A1, “KRAS INHIBITORS FOR TREATMENT OF CANCERS” (TYLIGAND BIOSCIENCE (SHANGHAI) LIMITED, priority 2020, published 2023)
Like-named read-outs stand apart in the source and are kept apart here.

Legend:
Assay type in all cases: cell-based
[1] = system: BaF3-KRas-G12C-R68S; experiment: Proliferation of KRas G12C inhibitor-resistant cell model, CTG; details: Adagrasib acquired-resistance model
Method: (§1) Each of the above cell lines was cultured in the indicated complete medium at 37° C., 5% CO2, and the cells in the logarithmic growth phase were harvested and counted using a platelet counter. The cell viability was detected by the trypan blue exclusion method to ensure that the cell viability was above 90%. Cell density was adjusted using complete medium, and then inoculated into 96-well cell culture plates, at 90 μL and a total of 3000 cells per well. The cells in the 96-well plate were cultured at 37° C. and 5% CO2.
(§2) 10 μL of each diluted compound solution was transferred to the corresponding experimental well of the 96-well cell plate and each concentration was set three replicate wells. The cells in the 96-well plate that had been dosed were incubated at 37° C. and 5% CO2 for 72 hours, and then CTG analysis was performed.
(§3) The CTG reagent was melted, and the cell plate was moved to room temperature to equilibrate for 30 minutes. 100 μL of CTG solution was added to each well, and shaken on an orbital shaker for 5 minutes to fully lyse the cells. The plate was kept at room temperature for 20 minutes to stabilize the luminescence signal, and the luminescence value of each well was scanned and the data was collected. GraphPad Prism 7.0 software was used to analyze the data, and the nonlinear Sigmoidal regression was used to fit the data to obtain a dose-response curve. The relative and absolute IC50 values and the maximum inhibition rate were calculated according to conventional methods well known to those skilled in the art.
(§4) Inhibition rate %=[1−(LumDrug to be tested−LumCulture medium control)/(LUMCell control−LumCulture medium control)]×100%
(§5) Acquired resistance is one of the key factors that affect the treatment efficacy of KRas G12C inhibitors.
(§6) All cell lines used in this assay were provided by KYinno Biotechnology Co., Ltd.

[2] = system: BaF3-KRas-G12C-H95Q; experiment: as above; details: Adagrasib acquired-resistance model
Method: as §1, §2, §3, §4, §5, §6

[3] = system: BaF3-KRas-G12C-Y96C; experiment: as above; details: Adagrasib acquired-resistance model
Method: as §1, §2, §3, §4, §5, §6

[4] = system: BaF3-KRas-G12C-Y96D; experiment: as above; details: Adagrasib acquired-resistance model
Method: as §1, §2, §3, §4, §5, §6

[5] = system: BaF3-KRas-G12C-H95D; experiment: as above; details: Adagrasib acquired-resistance model
Method: as §1, §2, §3, §4, §5, §6

[6] = system: SW837 (KRas-G12C); experiment: KRas mutant cell proliferation, CellTiter-Glo (CTG); details: Homo sapiens, rectal cancer, 72 h; for inhibition at up to 10 µM: top concentration 10 μM, read-out: Maximum inhibition %
From the text: (§7) In this assay, the CellTiter-Glo (CTG) kit of Promega was used to evaluate the anti-proliferation activities of the compounds of the present disclosure on 12 KRas mutant tumor cell lines.
(§8) [Test materials]: RPMI1640 medium (Hyclone, Cat #SH30809.01); fetal bovine serum (FBS) (Gibco, Cat #10099-141); phosphate buffer PBS (Solarbio, Cat #P1020-500); DMSO (Sigma, Cat #D8418-1L); detection kit CTG (Promega, Cat #G7573); 96-well cell culture plate (Thermo, Cat #3100 Series); Vibrator (QILINBEIER, Cat #QB-9001); Incubator (Thermo Scientific, Cat #Model 3100 series); microscope (OLYMPUS, Cat #CKX41SF); multi-function microplate reader (BMG LABTECH, Cat #CLARIOstar® Plus); biological safety cabinet (Thermo, Cat #Model 1300 Series A2). All cell lines used in the following assay were purchased from KYinno Biotechnology Co., Ltd.
as §1
(§9) The test compound solution in culture medium was prepared, the top concentration was 10 μM, serially diluted at a dilution factor of 3.16 to afford 9 concentrations. 10 μL of each diluted compound solution was transferred to the corresponding experimental well of the 96-well cell plate and each concentration was set three replicate wells. The cells in the 96-well plate that had been dosed were incubated at 37° C. and 5% CO2 for 72 hours, and then CTG analysis was performed.
as §3, §4

[7] = system: Kyse-410 (KRas-G12C); experiment: as above; details: Homo sapiens, esophageal cancer, 72 h; for inhibition at up to 10 µM: top concentration 10 μM, read-out: Maximum inhibition %
From the text: as §7, §8, §1, §9, §3, §4

[8] = system: A549 (KRasG12S); experiment: as above; details: Homo sapiens, A549, KRas G12S, lung cancer, 72 h; for inhibition at up to 10 µM: top concentration 10 μM, read-out: Maximum inhibition %
From the text: as §7, §8, §1, §9, §3, §4

[9] = system: H1373 (KRas-G12C); experiment: as above; details: Homo sapiens, NCI-H1373, lung cancer, 72 h; for inhibition at up to 10 µM: top concentration 10 μM, read-out: Maximum inhibition %
From the text: as §7, §8, §1, §9, §3, §4

[10] = system: H23 (KRas-G12C); experiment: as above; details: lung cancer, 72 h; for inhibition at up to 10 µM: top concentration 10 μM, read-out: Maximum inhibition %
From the text: as §7, §8, §1, §9, §3, §4

[11] = system: MIA-PaCa-2 (KRas-G12C); experiment: as above; details: Homo sapiens, pancreatic cancer, 72 h; for inhibition at up to 10 µM: top concentration 10 μM, read-out: Maximum inhibition %
From the text: as §7, §8, §1, §9, §3, §4

[12] = system: HCT116 (KRas-G13D); experiment: as above; details: Homo sapiens, HCT-116, colorectal cancer, 72 h; for inhibition at up to 10 µM: top concentration 10 μM, read-out: Maximum inhibition %
From the text: as §7, §8, §1, §9, §3, §4

[13] = system: T84 (KRas-G13D); experiment: as above; details: colon cancer, 72 h; for inhibition at up to 10 µM: top concentration 10 μM, read-out: Maximum inhibition %
From the text: as §7, §8, §1, §9, §3, §4

For `C=CC(=O)N1CCN(c2c(C#N)cnc3c(F)c(-c4ccc(F)c5sc(N)nc45)c(Cl)cc23)CC1` [Example 9, 4-(4-Acryloylpiperazin-1-yl)-7-(2-amino-7-fluorobenzo[d]thiazol-4-yl)-6-chloro-8-fluoroquinoline-3-carbonitrile], the IC50 [1] was 560 nM, the IC50 [2] was 91 nM and the IC50 [3] was 310 nM. The IC50 [4] was 1290 nM, the IC50 [5] was 100 nM and the IC50 ([6]; read-out: Absolute IC50) was 431 nM. The IC50 ([6]; read-out: Relative IC50) was 17 nM, the inhibition at up to 10 µM [6] was 60% and the IC50 ([7]; read-out: Absolute IC50) was 1570 nM. It also gave an IC50 ([7]; read-out: Relative IC50) of 2040 nM, an inhibition at up to 10 µM [7] of 77.5% and an inhibition at up to 10 µM [8] of 44.1%. The IC50 ([8]; read-out: Absolute IC50) was > 10000 nM, the IC50 ([8]; read-out: Relative IC50) was > 10000 nM and the IC50 ([9]; read-out: Absolute IC50) was 1510 nM. The IC50 ([9]; read-out: Relative IC50) was 1640 nM, the inhibition at up to 10 µM [9] was 80.3% and the IC50 ([10]; read-out: Absolute IC50) was 273 nM. For the same compound, the IC50 ([10]; read-out: Relative IC50) was 205 nM, the inhibition at up to 10 µM [10] was 94.4% and the IC50 ([11]; read-out: Absolute IC50) was 81 nM. For the same compound, the IC50 ([11]; read-out: Relative IC50) was 36 nM, the inhibition at up to 10 µM [11] was 85.9% and the IC50 ([12]; read-out: Absolute IC50) was 7060 nM. For the same compound, the IC50 ([12]; read-out: Relative IC50) was 5890 nM, the inhibition at up to 10 µM [12] was 62% and the IC50 ([13]; read-out: Absolute IC50) was > 10000 nM. The IC50 ([13]; read-out: Relative IC50) was > 10000 nM and the inhibition at up to 10 µM [13] was 14.7%.
`C=CC(=O)N1CCN(c2ncnc3c(F)c(-c4ccc(F)c5sc(N)nc45)c(Cl)cc23)CC1` [Ref. Comp. A, reference compound] showed an IC50 [1] of 1790 nM, an IC50 [2] of 120 nM and an IC50 [3] of 550 nM. For the same compound, the IC50 [4] was 3240 nM, the IC50 [5] was 150 nM and the IC50 ([6]; read-out: Absolute IC50) was > 10000 nM. The IC50 ([6]; read-out: Relative IC50) was 18 nM, the inhibition at up to 10 µM [6] was 48.6% and the IC50 ([7]; read-out: Absolute IC50) was 7240 nM. It also gave an IC50 ([7]; read-out: Relative IC50) of 5630 nM, an inhibition at up to 10 µM [7] of 58.3% and an inhibition at up to 10 µM [8] of 19.7%. For the same compound, the IC50 ([8]; read-out: Absolute IC50) was > 10000 nM, the IC50 ([8]; read-out: Relative IC50) was > 10000 nM and the IC50 ([9]; read-out: Absolute IC50) was 3240 nM. It also gave an IC50 ([9]; read-out: Relative IC50) of 1920 nM, an inhibition at up to 10 µM [9] of 65.2% and an IC50 ([10]; read-out: Absolute IC50) of 521 nM. The IC50 ([10]; read-out: Relative IC50) was 320 nM, the inhibition at up to 10 µM [10] was 85.9% and the IC50 ([11]; read-out: Absolute IC50) was 92 nM. The IC50 ([11]; read-out: Relative IC50) was 41 nM, the inhibition at up to 10 µM [11] was 74.5% and the IC50 ([12]; read-out: Absolute IC50) was > 10000 nM. For the same compound, the IC50 ([12]; read-out: Relative IC50) was > 10000 nM, the inhibition at up to 10 µM [12] was 29.3% and the IC50 ([13]; read-out: Absolute IC50) was > 10000 nM. For the same compound, the IC50 ([13]; read-out: Relative IC50) was > 10000 nM and the inhibition at up to 10 µM [13] was 4.59%.
